# In PubChem BioAssay AID248 (DTP/NCI, 2004):
# Values joined by “and” are separate entries in the source; they are usually repeats but may differ in a detail not shown here. Identical values can stand only once. Toxic doses and inconclusive results are not listed.
# System: L1210 leukemia ip in BDF1 mice, survival T/C
# Assay: NCI In Vivo Anticancer Drug Screen. Data for tumor model L1210 Leukemia (intraperitoneal) in B6D2F1 (BDF1) mice
# Settings: endpoint: mean survival time, higher = longer survival
# How it was run: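 Read-out is survival time, reported as the treated-group measurement over the vehicle-control measurement.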
# [1] = dose: 100.0 mg/kg/injection, schedule: Q01DX001 (ip), vehicle: saline
# [2] = dose: 200.0 mg/kg/injection, schedule: Q01DX001 (ip), vehicle: saline
# [3] = dose: 100.0 mg/kg/injection, schedule: Q04DX003 (ip), vehicle: Klucel (hydroxypropylcellulose) (HPC)
# [4] = dose: 200.0 mg/kg/injection, schedule: Q04DX003 (ip), vehicle: Klucel (hydroxypropylcellulose) (HPC)
# [5] = dose: 400.0 mg/kg/injection, schedule: Q04DX003 (ip), vehicle: Klucel (hydroxypropylcellulose) (HPC)
# [6] = dose: 100.0 mg/kg/injection, schedule: Q01DX009 (ip), vehicle: Klucel (hydroxypropylcellulose) (HPC)
# [7] = dose: 200.0 mg/kg/injection, schedule: Q01DX009 (ip), vehicle: Klucel (hydroxypropylcellulose) (HPC)
# [8] = dose: 100.0 mg/kg/injection, schedule: Q01DX001 (ip), vehicle: Klucel (hydroxypropylcellulose) (HPC)
# [9] = dose: 200.0 mg/kg/injection, schedule: Q01DX001 (ip), vehicle: Klucel (hydroxypropylcellulose) (HPC)
# [10] = dose: 400.0 mg/kg/injection, schedule: Q01DX001 (ip), vehicle: Klucel (hydroxypropylcellulose) (HPC)
# [11] = dose: 100.0 mg/kg/injection, schedule: Q04DX003 (ip), vehicle: saline with Tween-80
# [12] = dose: 200.0 mg/kg/injection, schedule: Q04DX003 (ip), vehicle: saline with Tween-80
# [13] = dose: 400.0 mg/kg/injection, schedule: Q04DX003 (ip), vehicle: saline with Tween-80
# [14] = dose: 400.0 mg/kg/injection, schedule: Q01DX009 (ip), vehicle: Klucel (hydroxypropylcellulose) (HPC)
# [15] = dose: 100.0 mg/kg/injection, schedule: Q04DX002 (ip), vehicle: saline with Tween-80
# [16] = dose: 200.0 mg/kg/injection, schedule: Q04DX002 (ip), vehicle: saline with Tween-80
# [17] = dose: 100.0 mg/kg/injection, schedule: Q01DX001 (ip), vehicle: carboxymethylcellulose (CMC)
# [18] = dose: 200.0 mg/kg/injection, schedule: Q01DX001 (ip), vehicle: carboxymethylcellulose (CMC)
# [19] = dose: 400.0 mg/kg/injection, schedule: Q01DX001 (ip), vehicle: carboxymethylcellulose (CMC)
smiles,measurement,setting,value
O=C(COc1c(Cl)cc(Cl)cc1Cl)NCc1ccc(Cl)cc1,T/C,"dose: 100.0 mg/kg/injection, schedule: Q01DX009 (ip), vehicle: saline with Tween-80",100 % of control
same,T/C,"dose: 200.0 mg/kg/injection, schedule: Q01DX009 (ip), vehicle: saline with Tween-80",109 % of control
same,T/C,"dose: 400.0 mg/kg/injection, schedule: Q01DX009 (ip), vehicle: saline with Tween-80",101 % of control
NC(N)=N/N=C(\C=C\C=C(c1ccc(Cl)cc1)c1ccc(Cl)cc1)c1ccc(Cl)cc1,T/C,"dose: 12.5 mg/kg/injection, schedule: Q04DX003 (ip), vehicle: saline",95 % of control
same,T/C,"dose: 25.0 mg/kg/injection, schedule: Q04DX003 (ip), vehicle: saline",95 % of control
same,T/C,"dose: 50.0 mg/kg/injection, schedule: Q04DX003 (ip), vehicle: saline",91 % of control
O=c1c2ccccc2[nH]c2cc(Cl)ccc12,T/C,"dose: 50.0 mg/kg/injection, schedule: Q01DX Z (ip), vehicle: carboxymethylcellulose (CMC)",109 % of control
same,T/C,"dose: 100.0 mg/kg/injection, schedule: Q01DX Z (ip), vehicle: carboxymethylcellulose (CMC)",103 % of control
same,T/C,"dose: 200.0 mg/kg/injection, schedule: Q01DX Z (ip), vehicle: carboxymethylcellulose (CMC)",97 % of control
same,T/C,"dose: 400.0 mg/kg/injection, schedule: Q01DX Z (ip), vehicle: carboxymethylcellulose (CMC)",115 % of control
O=C(OCC(OC(=O)c1ccccc1)C(OC(=O)c1ccccc1)C(OC(=O)c1ccccc1)C(OC(=O)c1ccccc1)c1cnn(-c2ccccc2)n1)c1ccccc1 (configuration not stated),T/C,"dose: 100.0 mg/kg/injection, schedule: Q04DX003 (ip), vehicle: acetone",87 % of control
same,T/C,"dose: 200.0 mg/kg/injection, schedule: Q04DX003 (ip), vehicle: acetone",100 % of control
same,T/C,"dose: 400.0 mg/kg/injection, schedule: Q04DX003 (ip), vehicle: acetone",90 % of control
Cc1cc(CC(C)C)c(C(N)=O)cc1C,T/C,"dose: 100.0 mg/kg/injection, schedule: Q01DX001 (ip), vehicle: other",108 % of control
same,T/C,"dose: 200.0 mg/kg/injection, schedule: Q01DX001 (ip), vehicle: other",105 % of control
same,T/C,"dose: 400.0 mg/kg/injection, schedule: Q01DX001 (ip), vehicle: other",103 % of control
CCCCOB(OCCCC)c1cccc(B(OCCCC)OCCCC)c1,T/C,[1],89 % of control
same,T/C,[2],101 % of control
same,T/C,"dose: 400.0 mg/kg/injection, schedule: Q01DX001 (ip), vehicle: saline",117 % of control
NC(CCl)=NCC1C2CC3CC(C2)CC1C3 (configuration not stated),T/C,"dose: 10.0 mg/kg/injection, schedule: Q01DX009 (ip), vehicle: saline",101 % of control
same,T/C,"dose: 10.0 mg/kg/injection, schedule: Q04DX002 (ip), vehicle: saline",121 % of control
same,T/C,"dose: 20.0 mg/kg/injection, schedule: Q01DX009 (ip), vehicle: saline",116 % of control
same,T/C,"dose: 20.0 mg/kg/injection, schedule: Q04DX002 (ip), vehicle: saline",110 % of control
same,T/C,"dose: 40.0 mg/kg/injection, schedule: Q04DX002 (ip), vehicle: saline",110 % of control
O=C(Nc1ccccc1)OC1CCCC1,T/C,[3],101 % of control
same,T/C,[4],101 % of control
same,T/C,[5],96 % of control
CCC(CO)Nc1nc2ccccc2c2ccccc12 (configuration not stated),T/C,[6],102 % of control
same,T/C,[3],98 % of control
same,T/C,[7],97 % of control
same,T/C,[4],89 % of control
same,T/C,[5],88 % of control
c1ccc(N2CC2)cc1,T/C,[8],105 % of control
same,T/C,[9],100 % of control
same,T/C,[10],96 % of control
C1CCN(/N=N/c2nn[nH]n2)CC1,T/C,[11],94 % of control
same,T/C,[12],91 % of control
same,T/C,[13],94 % of control
CCOP(=O)(OCC)OCCOCCOP(=O)(OCC)OCC,T/C,"dose: 8.8 mg/kg/injection, schedule: Q01DX Z (ip), vehicle: saline",98 % of control
same,T/C,"dose: 13.3 mg/kg/injection, schedule: Q01DX Z (ip), vehicle: saline",110 % of control
same,T/C,"dose: 20.0 mg/kg/injection, schedule: Q01DX Z (ip), vehicle: saline",96 % of control
CC1(C)CC2(CC(C)(C)c3cc(O)c(O)cc32)c2cc(O)c(O)cc21,T/C,[6],95 % of control
same,T/C,[3],100 % of control
same,T/C,[7],100 % of control
same,T/C,[4],105 % of control
same,T/C,[14],104 % of control
same,T/C,[5],102 % of control
Clc1ccc2c(CBr)ccnc2c1,T/C,[1],98 % of control
same,T/C,[2],104 % of control
COC1OC(CO)C(OS(=O)(=O)c2ccc(C)cc2)C(C(=O)Oc2ccccc2)C1OC(=O)c1ccccc1 (configuration not stated),T/C,"dose: 50.0 mg/kg/injection, schedule: Q04DX002 (ip), vehicle: saline with Tween-80",93 % of control
same,T/C,[15],104 % of control
same,T/C,[16],90 % of control
NC(=S)SCCC(=O)O,T/C,[6],96 % of control
same,T/C,[7],100 % of control
same,T/C,[4],93 % of control
same,T/C,[14],94 % of control
same,T/C,[5],92 % of control
Clc1ccc2nc(C(Cl)(Cl)Cl)[nH]c2c1,T/C,[11],98 % of control
same,T/C,[12],104 % of control
same,T/C,[13],95 % of control
CCc1ncc(C(C)(O)c2ccc(Cl)cc2)n1Cc1ccccc1 (configuration not stated),T/C,[3],94 % of control
same,T/C,[4],92 % of control
same,T/C,[5],89 % of control
NC(c1ccccc1)C(O)c1ccccc1 (configuration not stated),T/C,"dose: 37.5 mg/kg/injection, schedule: Q04DX003 (ip), vehicle: saline",98 % of control
same,T/C,"dose: 75.0 mg/kg/injection, schedule: Q04DX003 (ip), vehicle: saline",92 % of control
same,T/C,"dose: 150.0 mg/kg/injection, schedule: Q04DX003 (ip), vehicle: saline",101 % of control
O=C(N/N=C/c1ccc(Cl)cc1Cl)C(O)C(O)C(O)C(O)CO (configuration not stated),T/C,"dose: 12.5 mg/kg/injection, schedule: Q04DX003 (ip), vehicle: saline with Tween-80",105 % of control
same,T/C,"dose: 25.0 mg/kg/injection, schedule: Q04DX003 (ip), vehicle: saline with Tween-80",101 % of control
same,T/C,"dose: 50.0 mg/kg/injection, schedule: Q01DX001 (ip), vehicle: saline with Tween-80",91 % of control
same,T/C,"dose: 50.0 mg/kg/injection, schedule: Q01DX009 (ip), vehicle: saline with Tween-80",90 % of control
same,T/C,"dose: 50.0 mg/kg/injection, schedule: Q04DX003 (ip), vehicle: saline with Tween-80",96 % of control and 92 % of control
same,T/C,"dose: 100.0 mg/kg/injection, schedule: Q01DX001 (ip), vehicle: saline with Tween-80",104 % of control
same,T/C,[15],92 % of control
same,T/C,"dose: 200.0 mg/kg/injection, schedule: Q01DX001 (ip), vehicle: saline with Tween-80",90 % of control
same,T/C,[16],86 % of control
same,T/C,"dose: 400.0 mg/kg/injection, schedule: Q04DX002 (ip), vehicle: saline with Tween-80",97 % of control
CSc1cccc(C(=O)O)c1,T/C,[8],102 % of control
same,T/C,[9],102 % of control
same,T/C,[10],94 % of control
O=C(NNC(=O)Nc1ccc(C2=NCCN2)cc1)Nc1ccc(C2=NCCN2)cc1,T/C,"dose: 8.0 mg/kg/injection, schedule: Q01DX Z (ip), vehicle: carboxymethylcellulose (CMC)",95 % of control
same,T/C,"dose: 16.0 mg/kg/injection, schedule: Q01DX Z (ip), vehicle: carboxymethylcellulose (CMC)",98 % of control
same,T/C,"dose: 32.0 mg/kg/injection, schedule: Q01DX Z (ip), vehicle: carboxymethylcellulose (CMC)",108 % of control
same,T/C,"dose: 64.0 mg/kg/injection, schedule: Q01DX Z (ip), vehicle: carboxymethylcellulose (CMC)",165 % of control
Cc1ccc(S(=O)(=O)Nc2cc(C)cc(CCNC=O)c2C)cc1,T/C,"dose: 50.0 mg/kg/injection, schedule: Q01DX001 (ip), vehicle: carboxymethylcellulose (CMC)",114 % of control
same,T/C,[17],109 % of control
same,T/C,[18],95 % of control
same,T/C,[19],93 % of control
CC12C=CC3(CCC4C(C)(C)C(O)C(=O)CC4(C)C3CC1=O)C2 (configuration not stated),T/C,[6],105 % of control
same,T/C,[3],101 % of control
same,T/C,[7],97 % of control
same,T/C,[4],101 % of control
same,T/C,[14],107 % of control
same,T/C,[5],98 % of control
CC1=NN(c2ccccc2)C(=O)C1N=Nc1ccc(S(=O)(=O)Nc2nnc(C)s2)cc1 (configuration not stated),T/C,[17],98 % of control
same,T/C,[18],106 % of control
same,T/C,[19],93 % of control
Nc1ccc(CCc2ccc(N)cc2[N+](=O)[O-])c([N+](=O)[O-])c1,T/C,[6],101 % of control
same,T/C,[3],96 % of control
same,T/C,[7],101 % of control
same,T/C,[4],109 % of control
same,T/C,[14],92 % of control
same,T/C,[5],90 % of control
